Measurements as given in patent US20240174744A1, “METHODS OF TREATMENT USING PROTEIN BINDERS TO IRHOM2 EPITOPES” (SCIRHOM GMBH, priority 2021, published 2024).

Test system: PMA-induced release of IL-6R from THP-1 cells
Experiment: ELISA-based IL-6R release assay, PMA-stimulated THP-1 cells
Type: cell-based
Conditions: Homo sapiens, recombinant murine antibodies 1 μg/ml, Batimastat 10 μM, PMA 25 ng/ml, 1 hour
Method: In the following study, ELISA-based IL-6R release assays were performed to analyze the inhibitory effects of the antibodies of the present disclosure on PMA-induced release of endogenous IL-6R from human THP-1 monocytic cells.
In brief, on day 1, Nunc black MaxiSorp® 96-well plates (Thermo Fisher Scientific, USA) were coated for 7 hours with 100 μl per well of mouse anti-human IL-6R capture antibody (provided as part of the DuoSet ELISA kit) at 2 μg/ml TBS at room temperature. Capture antibody solution was removed and MaxiSorp® plates were blocked with 300 μl per well of TBS, 1% BSA at room temperature for 1.5 hours. […] Using an infinite M1000 (Tecan Group, Switzerland) microplate reader, the fluorescence of each well was collected at an excitation wavelength of 435 nm and an emission wavelength of 555 nm.

CNC(=O)[C@H](Cc1ccccc1)NC(=O)[C@H](CC(C)C)[C@H](CSc1cccs1)C(=O)NO [Batimastat]
inhibition at 10 µM: 88.6%
